In patent US20250332266A1, “COMPOUNDS FOR THE DEGRADATION OF EGFR KINASE” (BeiGene Switzerland GmbH, priority 2022, published 2025):
Like-named read-outs stand apart in the source and are kept apart here.

Legend:
[1] = target: T1, EGFR L858R/C797S (H1975-clone #8) (Homo sapiens, UniProt P00533, C797S/L858R); assay: EGFR degradation, HTRF total-EGFR assay, H1975-clone #8 (L858R/C797S); format: cell-based; conditions: 16 h treatment
T1 construct: expressed in transfected cells; host or cells: H1975 (clone #8), lentiviral transduction, endogenous EGFR knocked out
Protocol: H1975-clone #8 (L858R/C797S): EGFR-L858R/C797S were stably expressed in H1975 cell lines by lentivirus-mediated over-expression, respectively. The EGFR over-expressed cells then underwent knockout, in which the EGFR targeting sgRNA was designed to only target the endogenous EGFR copies and preserve the exogenous EGFR copies. Followed by the knockout, the edited H1975 cells were seeded in 96 well plates at the concentration of 1 cell/well, cultured for about 2 weeks to allow single clones formation. The formed clones were screened by DNA sequencing and whole exon sequencing analysis for the desired edition. H1975-clone #8 were finally confirmed as homozygous L858R/C797S EGFR clones.
(§1) H1975-#8 and BaF3-L858R cells are treated with compounds diluted in 0.1% DMSO cell culture medium on day 2, incubate for 16 h, 37° C., 5% CO2. the final concentration of compounds in all assay starts with 10 uM, 5-fold dilution, total 8 doses were included.
(§2) Total-EGFR cellular kit (64NG1PEH) were used for evaluating EGFR degradation.
(§3) After 16 h treatment, for H1975-#8 cells, add 100 μL HTRF 1× lysis buffer to each well; for BaF3-L858R cells, add 20 μL 4× lysis buffer to each well; seal the plate and incubate 1 hour at room temperature on a plate shaker; Once the cells are lysed, 16 μL of cell lysate are transferred to a PE 384-well HTRF detection plate; 4 μL of pre-mixed HTRF antibodies are added to each well; cover the plate with a plate sealer, spin 1000 rpm for 1 min, incubate overnight at room temperature; read on BMG PheraStar with HTRF protocol (337 nm-665 nm-620 nm).
(§4) The inhibition (degradation) percentage of the compound was calculated by the following equation:
(§5) Inhibition percentage of Compound=100−100×(Signal−low control)/(High control−low control), wherein signal=each test compound group
(§6) High control=Cell group with added DMSO and without compound, indicating microplate readings without EGFR degradation.
(§7) Imax (Dmax) is the maximum percentage of inhibition (degradation).
(§8) The IC50 (DC50) value of a compound can be obtained by fitting the following equation
(§9) Wherein, X and Y are known values, and IC50, Hillslope, Top and Bottom are the parameters obtained by fitting with software. Y is the inhibition percentage (calculated from the equation), X is the concentration of the compound; IC50 is the concentration of the compound when the 50% inhibition is reached. The smaller the IC50 value is, the stronger the inhibitory ability of the compound is. Vice versa, the higher the IC50 value is, the weaker the ability the inhibitory ability of the compound is; Hillslope represents the slope of the fitted curve, generally around 1*; Bottom represents the minimum value of the curve obtained by data fitting, which is generally 0%±20%; Top represents the maximum value of the curve obtained by data fitting, which is generally 100%±20%. The experimental data were fitted by calculating and analyzing with Dotmatics data analysis software.

[2] = target: T2, EGFR L858R (BaF3-L858R) (Homo sapiens, UniProt P00533, L858R); assay: EGFR degradation, HTRF total-EGFR assay, BaF3-L858R cells; format: cell-based; conditions: 16 h treatment
T2 construct: host or cells: BaF3
Protocol: BaF3-L858R (abbv. L858R) cell were purchased from Kangyuan Bochuang Biotechnology (Beijing) Co., Ltd.
as §1, §2, §3, §4, §5, §6, §7, §8, §9

[3] = amide bond, 15-membered ring, 25.0 °C

T2 sequence (P00533 25-1210 L858R): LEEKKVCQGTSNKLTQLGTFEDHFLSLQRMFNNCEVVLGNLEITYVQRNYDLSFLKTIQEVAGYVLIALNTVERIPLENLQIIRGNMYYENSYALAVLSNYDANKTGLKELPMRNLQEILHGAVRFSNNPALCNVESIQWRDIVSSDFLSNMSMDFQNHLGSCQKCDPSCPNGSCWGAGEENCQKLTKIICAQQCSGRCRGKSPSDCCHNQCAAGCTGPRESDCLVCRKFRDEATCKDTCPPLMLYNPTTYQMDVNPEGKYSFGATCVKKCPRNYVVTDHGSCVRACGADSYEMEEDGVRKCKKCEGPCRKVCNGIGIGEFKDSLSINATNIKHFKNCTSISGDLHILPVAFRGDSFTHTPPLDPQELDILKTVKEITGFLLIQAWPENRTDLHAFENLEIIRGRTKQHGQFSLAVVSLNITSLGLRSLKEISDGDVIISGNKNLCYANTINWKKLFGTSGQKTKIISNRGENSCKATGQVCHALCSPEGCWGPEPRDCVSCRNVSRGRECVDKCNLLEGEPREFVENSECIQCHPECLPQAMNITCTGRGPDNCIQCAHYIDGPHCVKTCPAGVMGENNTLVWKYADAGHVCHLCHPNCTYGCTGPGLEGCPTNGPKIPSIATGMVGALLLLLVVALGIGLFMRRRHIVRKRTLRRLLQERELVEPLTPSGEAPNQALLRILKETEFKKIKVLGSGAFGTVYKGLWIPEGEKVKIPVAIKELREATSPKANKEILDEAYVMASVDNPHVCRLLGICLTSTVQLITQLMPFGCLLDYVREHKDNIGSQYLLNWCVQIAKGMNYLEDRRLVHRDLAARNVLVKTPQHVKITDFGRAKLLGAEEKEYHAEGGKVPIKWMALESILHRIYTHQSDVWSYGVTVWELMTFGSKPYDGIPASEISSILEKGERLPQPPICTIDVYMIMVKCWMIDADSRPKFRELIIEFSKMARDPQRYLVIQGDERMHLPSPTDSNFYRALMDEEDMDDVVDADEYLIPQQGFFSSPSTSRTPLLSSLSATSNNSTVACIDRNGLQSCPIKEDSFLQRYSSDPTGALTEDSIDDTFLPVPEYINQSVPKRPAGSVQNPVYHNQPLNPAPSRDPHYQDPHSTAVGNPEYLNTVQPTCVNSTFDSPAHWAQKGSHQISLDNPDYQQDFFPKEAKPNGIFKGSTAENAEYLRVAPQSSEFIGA
T1 sequence (P00533 25-1210 C797S/L858R): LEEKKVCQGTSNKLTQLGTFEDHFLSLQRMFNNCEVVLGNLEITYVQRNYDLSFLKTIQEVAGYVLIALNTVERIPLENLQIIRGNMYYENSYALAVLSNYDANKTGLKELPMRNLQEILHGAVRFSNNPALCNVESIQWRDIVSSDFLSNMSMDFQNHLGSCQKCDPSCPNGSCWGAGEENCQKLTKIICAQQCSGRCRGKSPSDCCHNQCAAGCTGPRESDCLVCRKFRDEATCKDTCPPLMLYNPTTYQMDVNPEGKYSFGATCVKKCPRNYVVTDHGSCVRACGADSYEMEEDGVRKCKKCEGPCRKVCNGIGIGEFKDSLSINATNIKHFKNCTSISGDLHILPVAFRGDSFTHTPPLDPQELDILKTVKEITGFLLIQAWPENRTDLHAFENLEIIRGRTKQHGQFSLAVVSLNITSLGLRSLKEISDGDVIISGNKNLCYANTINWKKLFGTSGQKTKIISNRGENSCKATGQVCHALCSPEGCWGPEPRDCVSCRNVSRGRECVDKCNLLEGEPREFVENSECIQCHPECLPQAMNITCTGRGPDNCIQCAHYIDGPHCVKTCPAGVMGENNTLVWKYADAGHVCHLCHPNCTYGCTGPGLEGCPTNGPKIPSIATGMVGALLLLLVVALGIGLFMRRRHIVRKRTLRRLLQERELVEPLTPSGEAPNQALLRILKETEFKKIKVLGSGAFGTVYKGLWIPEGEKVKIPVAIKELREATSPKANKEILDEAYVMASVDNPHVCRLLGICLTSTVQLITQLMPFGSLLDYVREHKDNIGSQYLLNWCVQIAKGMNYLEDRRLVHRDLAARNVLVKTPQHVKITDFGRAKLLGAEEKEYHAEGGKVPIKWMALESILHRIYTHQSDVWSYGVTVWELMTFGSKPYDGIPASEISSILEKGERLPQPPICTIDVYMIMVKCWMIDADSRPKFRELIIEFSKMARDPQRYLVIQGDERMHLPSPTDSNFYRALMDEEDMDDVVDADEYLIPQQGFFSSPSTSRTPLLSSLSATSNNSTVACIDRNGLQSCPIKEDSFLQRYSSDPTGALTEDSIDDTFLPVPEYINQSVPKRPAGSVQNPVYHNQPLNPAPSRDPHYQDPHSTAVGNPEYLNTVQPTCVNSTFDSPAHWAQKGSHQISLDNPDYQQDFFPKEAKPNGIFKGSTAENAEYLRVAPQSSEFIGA

Structure (SMILES) | DC50 [1] | Dmax [1] | DC50 [2] | Dmax [2] | other results
Cc1cc2cc(n1)-c1cnn(C)c1OC[C@H]1C[C@@H](CN3/C(=N/C2=O)Nc2ccc(N4CCN(C5CN(CCc6c(C)cc(C7CCC(=O)NC7=O)nc6C)C5)CC4)cc23)C1 (some centres unmarked) [Example 150, 3-(5-(2-(3-(4-((7^1s,7^3s,E)-1^1,2^6-dimethyl-3-oxo-5^2,5^3-dihydro-1^1H,5^1H-9-oxa-4-aza-5(2,1)-benzo[d]imidazola-2(2,4)-pyridina-1(4,5)-pyrazola-7(1,3)-cyclobutanacyclononaphane-5^6-yl)piperazin-1-yl)azetidin-1-yl)ethyl)-4,6-dimethylpyridin-2-yl)piperidine-2,6-dione] | 0.0035 µM | 51.9% | 0.0119 µM | 73.5% | 
Cc1cc2cc(n1)-c1cnn(C)c1OC[C@H]1C[C@@H](CN3/C(=N/C2=O)Nc2ccc(N4CCN(C5CCN(c6c(C)cc(C7CCC(=O)NC7=O)nc6C)CC5)CC4)cc23)C1 (some centres unmarked) [Example 141, 3-(5-(4-(4-((7^1s,7^3s,E)-1^1,2^6-dimethyl-3-oxo-5^2,5^3-dihydro-1^1H,5^1H-9-oxa-4-aza-5(2,1)-benzo[d]imidazola-2(2,4)-pyridina-1(4,5)-pyrazola-7(1,3)-cyclobutanacyclononaphane-5^6-yl)piperazin-1-yl)piperidin-1-yl)-4,6-dimethylpyridin-2-yl)piperidine-2,6-dione] | 0.0007 µM | 40.4% | 0.0119 µM | 85.1% | 
CCc1nc(C2CCC(=O)NC2=O)ccc1N1CCC(N2CC(N3CCN(c4ccc5c(c4)N4C[C@H]6C[C@@H](COc7c(cnn7C)-c7cc(cc(C)n7)C(=O)/N=C/4N5)C6)CC3)C2)CC1 (some centres unmarked) [Example 149, 3-(5-(4-(3-(4-((7^1s,7^3s,E)-1^1,2^6-dimethyl-3-oxo-5^2,5^3-dihydro-1^1H,5^1H-9-oxa-4-aza-5(2,1)-benzo[d]imidazola-2(2,4)-pyridina-1(4,5)-pyrazola-7(1,3)-cyclobutanacyclononaphane-5^6-yl)piperazin-1-yl)azetidin-1-yl)piperidin-1-yl)-6-ethylpyridin-2-yl)piperidine-2,6-dione] | 0.0033 µM | 52.2% | 0.016 µM | 71.1% | 
Cc1cc2cc(n1)-c1cnn(C)c1OC[C@H]1C[C@@H](CN3/C(=N/C2=O)Nc2ccc(N4C[C@H](C)N(C5CCN(c6ccc(C7CCC(=O)NC7=O)nc6C)CC5)C[C@@H]4C)cc23)C1 (stereo partly drawn) [Example 139, 3-(5-(4-((2S,5S)-4-((7^1s,7^3R,E)-1^1,2^6-dimethyl-3-oxo-5^2,5^3-dihydro-1^1H,5^1H-9-oxa-4-aza-5(2,1)-benzo[d]imidazola-2(2,4)-pyridina-1(4,5)-pyrazola-7(1,3)-cyclobutanacyclononaphane-5^6-yl)-2,5-dimethylpiperazin-1-yl)piperidin-1-yl)-6-methylpyridin-2-yl)piperidine-2,6-dione] |  |  | 0.0307 µM | 88.9% | 
Cc1cc2cc(n1)-c1cnn(C)c1OCC1CC(C1)Cn1c(nc3ccc(N4CCN(C(=O)OC(C)(C)C)CC4=O)cc31)NC2=O |  |  |  |  | ring closure, isolated yield ([3]; from Cc1cc(C(=O)O)cc(-c2cnn(C)c2OCC2CC(Cn3c(N)nc4ccc(N5CCN(C(=O)OC(C)(C)C)CC5=O)cc43)C2)n1, HATU/DIEA, DCM, 34.0 mM): 51.6%
COC(=O)c1cc(C)nc(-c2cnn(C)c2OCC2CC(Cn3c(=N)[nH]c4ccc(Br)cc43)C2)c1 (centres unmarked) |  |  |  |  | ring closure, isolated yield ([3]; the molecule shown is the open-chain precursor, LiHMDS, THF, 116.0 mM): 74.7%
CCc1nc(C2CCC(=O)NC2=O)ccc1N1CCC(N2CCN(c3ccc4c(c3)N3C[C@H]5C[C@@H](COc6c(cnn6C)-c6cc(cc(C)n6)C(=O)/N=C/3N4)C5)CC2)CC1 (some centres unmarked) [Example 140, 3-(5-(4-(4-((7^1s,7^3s,E)-1^1,2^6-dimethyl-3-oxo-5^2,5^3-dihydro-1H,5^1H-9-oxa-4-aza-5(2,1)-benzo[d]imidazola-2(2,4)-pyridina-1(4,5)-pyrazola-7(1,3)-cyclobutanacyclononaphane-5^6-yl)piperazin-1-yl)piperidin-1-yl)-6-ethylpyridin-2-yl)piperidine-2,6-dione] |  |  | 0.0378 µM | 90.6% | 
Cc1cc2cc(n1)-c1cnn(C)c1OC[C@H]1C[C@@H](CN3/C(=N/C2=O)Nc2ccc(N4CCN(C5CCN(c6cc(F)c(C7CCC(=O)NC7=O)nc6C)CC5)CC4)cc23)C1 (some centres unmarked) [Example 142, 3-(5-(4-(4-((7^1s,7^3s,E)-1^1,2^6-dimethyl-3-oxo-5^2,5^3-dihydro-1^1H,5^1H-9-oxa-4-aza-5(2,1)-benzo[d]imidazola-2(2,4)-pyridina-1(4,5)-pyrazola-7(1,3)-cyclobutanacyclononaphane-5^6-yl)piperazin-1-yl)piperidin-1-yl)-3-fluoro-6-methylpyridin-2-yl)piperidine-2,6-dione] |  |  | 0.0523 µM | 76.2% | 
CCc1cc(C2CCC(=O)NC2=O)ncc1N1CCC(N2CC(N3CCN(c4ccc5c(c4)N4C[C@H]6C[C@@H](COc7c(cnn7C)-c7cc(cc(C)n7)C(=O)/N=C/4N5)C6)CC3)C2)CC1 (some centres unmarked) [Example 143, 3-(5-(4-(3-(4-((7^1s,7^3s,E)-1^1,2^6-dimethyl-3-oxo-5^2,5^3-dihydro-1^1H,5^1H-9-oxa-4-aza-5(2,1)-benzo[d]imidazola-2(2,4)-pyridina-1(4,5)-pyrazola-7(1,3)-cyclobutanacyclononaphane-5^6-yl)piperazin-1-yl)azetidin-1-yl)piperidin-1-yl)-4-ethylpyridin-2-yl)piperidine-2,6-dione] |  |  | 0.0085 µM | 75.8% | 
Cc1cc(C(=O)O)cc(-c2cnn(C)c2OCC2CC(Cn3c(=N)[nH]c4ccc(CN5CCN(C(=O)OC(C)(C)C)CC5)cc43)C2)n1 (centres unmarked) |  |  |  |  | ring closure, isolated yield ([3]; the molecule shown is the open-chain precursor, HATU/DIEA, DMF, 70.0 mM): 50.1%
